Assay results reported in DBAASP.
In brackets after ≈: the same amount, converted by molar mass. Several values for one entry are separate records, joined by “and”; a condition that tells them apart may be missing. Equal values may be shown once. Blank lines part the entries; values can stand above or below the compound they belong to.

Legend:
Assay in all cases: ≥ marks a high value that may be exact or a test limit, other limits are often not marked, values filed in µg/mL are converted to µM
[1] = tested on: Salmonella enterica subsp. enterica serovar Typhimurium ATCC 14028
[2] = tested on: Staphylococcus aureus CCARM 3001
[3] = tested on: Bacillus cereus ATCC 11778
Escherichia coli SBS 363 = tested on: Escherichia coli SBS 363
[4] = tested on: Staphylococcus aureus KCTC 1621
[5] = tested on: Candida tropicalis IOC 4560
[6] = tested on: Acinetobacter baumannii ATCC 19606
[7] = tested on: Pseudomonas aeruginosa NCIB 10421
Proteus mirabilis = tested on: Proteus mirabilis
[8] = tested on: Pseudomonas aeruginosa PAO1
[9] = tested on: Escherichia coli KCTC 1682
[10] = tested on: Salmonella typhimurium KCTC 1926
[11] = tested on: Staphylococcus epidermidis KCTC 1917
[12] = tested on: Escherichia coli CCT 1371
Micrococcus luteus A270 = tested on: Micrococcus luteus A270
Escherichia coli AIG 222 = tested on: Escherichia coli AIG 222
[13] = tested on: Pseudomonas aeruginosa CCARM 2095
[14] = tested on: Pseudomonas aeruginosa ATCC BAA-427
[15] = tested on: Staphylococcus aureus ATCC 12600
Bacillus thuringiensis = tested on: Bacillus thuringiensis
[16] = tested on: Staphylococcus aureus ATCC 25923
[17] = tested on: Klebsiella oxytoca CIP 79.32
[18] = tested on: Escherichia coli ATCC 11775
[19] = tested on: Bacillus subtilis CCT 2471
[20] = tested on: Staphylococcus saprophyticus
[21] = tested on: Serratia marcescens ATCC 4112
Escherichia coli BL21 = tested on: Escherichia coli BL21
Escherichia coli AIG 221 = tested on: Escherichia coli AIG 221
[22] = tested on: Staphylococcus epidermidis ATCC 12228
[23] = tested on: Bacillus megaterium ATCC 10778
[24] = tested on: Staphylococcus aureus ATCC 6538
[25] = tested on: Klebsiella aerogenes ATCC 13048
[26] = tested on: Staphylococcus aureus ATCC 25293
Candida albicans MDM8 = tested on: Candida albicans MDM8
[27] = tested on: Klebsiella pneumoniae ATCC 13883
[28] = tested on: Escherichia coli ATCC 10536
[29] = tested on: Staphylococcus aureus CCARM 3543
[30] = tested on: Candida albicans ATCC 18804
[31] = tested on: Pseudomonas aeruginosa ATCC 15442
[32] = tested on: Pseudomonas aeruginosa KCTC 1637
[33] = tested on: Pseudomonas aeruginosa ATCC 27853
Candida tropicalis = tested on: Candida tropicalis
Escherichia coli D21 = tested on: Escherichia coli D21
Mammaliicoccus lentus = tested on: Mammaliicoccus lentus
Bacillus megaterium Bm11 = tested on: Bacillus megaterium Bm11
Micrococcus luteus = tested on: Micrococcus luteus
[34] = tested on: Yersinia pseudotuberculosis YPIII
[35] = tested on: Phytophthora nicotianae PG344
[36] = tested on: Candida albicans ATCC 10231
[37] = tested on: Pseudomonas syringae pv. tabaci
[38] = tested on: Staphylococcus epidermidis LT1324
[39] = tested on: Staphylococcus aureus LT1334
Citrobacter freundii = tested on: Citrobacter freundii
[40] = tested on: Stenotrophomonas maltophilia
Escherichia coli ML-35 = tested on: Escherichia coli ML-35
Enterococcus faecium = tested on: Enterococcus faecium
Pseudomonas aeruginosa = tested on: Pseudomonas aeruginosa
[41] = tested on: Staphylococcus aureus 710A
[42] = tested on: Staphylococcus aureus LT1338
Staphylococcus aureus = tested on: Staphylococcus aureus
[43] = tested on: Staphylococcus haemolyticus
Klebsiella pneumoniae = tested on: Klebsiella pneumoniae
Candida albicans = tested on: Candida albicans
Escherichia coli = tested on: Escherichia coli

MIC [1]: 66.5 µM (≈ 99.9 µg/mL)
MIC [2]: 1 µM (≈ 1.5 µg/mL)
MIC [3]: ≥ 66.5 µM
MIC (Escherichia coli SBS 363): 1.56 µM (≈ 2.34 µg/mL)
MIC [4]: 2 µM (≈ 3.01 µg/mL)
MIC [5]: 1.56 µM (≈ 2.34 µg/mL)
MIC [6]: 8 µM (≈ 12 µg/mL)
MIC [7]: ≥ 50 µM
MIC (Proteus mirabilis): ≥ 133 µM
MIC [8]: > 128 µM
MIC [9]: 4 µM (≈ 6.01 µg/mL)
MIC [10]: 2 µM (≈ 3.01 µg/mL)
MIC [11]: 2 µM (≈ 3.01 µg/mL)
MIC [12]: 3.32 µM (≈ 5 µg/mL)
MIC (Micrococcus luteus A270): 0.78 µM (≈ 1.17 µg/mL)
MIC (Escherichia coli AIG 222): 16 µM (≈ 24 µg/mL)
MIC [13]: 1 µM (≈ 1.5 µg/mL)
MIC [14]: 4 µM (≈ 6.01 µg/mL)
MIC [15]: 8 µM (≈ 12 µg/mL)
MIC (Bacillus thuringiensis): 16.6 µM (≈ 25 µg/mL)
MIC [16]: 2 µM (≈ 3.01 µg/mL)
MIC [17]: 16 µM (≈ 24 µg/mL)
MIC [18]: ≥ 32 µM
MIC [19]: 6.65 µM (≈ 9.99 µg/mL)
MIC [20]: 0.665 µM (≈ 0.999 µg/mL)
MIC [21]: 0.36 µM (≈ 0.541 µg/mL)
MIC (Escherichia coli BL21): 4 µM (≈ 6.01 µg/mL)
MIC (Escherichia coli AIG 221): ≥ 32 µM
MIC [22]: 8 µM (≈ 12 µg/mL)
MIC [23]: 0.78 µM (≈ 1.17 µg/mL)
MIC [24]: 3.32 µM (≈ 5 µg/mL)
MIC [25]: ≥ 66.5 µM
MIC [26]: 0.665 µM (≈ 0.999 µg/mL)
MIC (Candida albicans MDM8): 3.13 µM (≈ 4.7 µg/mL)
MIC [27]: ≥ 64 µM
MIC [28]: 3 µM (≈ 4.51 µg/mL)
MIC [29]: 1 µM (≈ 1.5 µg/mL)
MIC [30]: 12.5 µM (≈ 18.8 µg/mL)
MIC [31]: ≥ 133 µM
MIC [32]: 2 µM (≈ 3.01 µg/mL)
MIC [33]: 66.5 µM (≈ 99.9 µg/mL)
SMILES: CC[C@H](C)[C@H](N)C(=O)N[C@@H](CC(C)C)C(=O)NCC(=O)N[C@@H](CCCCN)C(=O)N[C@H](C(=O)N[C@@H](Cc1c[nH]c2ccccc12)C(=O)N[C@@H](CCC(=O)O)C(=O)NCC(=O)N[C@H](C(=O)N[C@@H](CCCCN)C(=O)N[C@@H](CO)C(=O)N[C@@H](CC(C)C)C(=O)N[C@@H](Cc1ccccc1)C(N)=O)[C@@H](C)CC)[C@@H](C)CC [ILGKIWEGIKSLF]

MIC (Candida tropicalis): 14 µM (≈ 26.5 µg/mL)
MIC (Escherichia coli D21): 30 µM (≈ 56.7 µg/mL)
MIC (Mammaliicoccus lentus): 10 µM (≈ 18.9 µg/mL)
MIC (Bacillus megaterium Bm11): 3 µM (≈ 5.67 µg/mL)
MIC (Micrococcus luteus): 8 µM (≈ 15.1 µg/mL)
MIC [34]: 5 µM (≈ 9.45 µg/mL)
MIC [35]: 16 µM (≈ 30.2 µg/mL)
MIC [36]: 22 µM (≈ 41.6 µg/mL)
MIC [37]: 16 µM (≈ 30.2 µg/mL)
SMILES: CC(C)C[C@H](NC(=O)[C@H](C)NC(=O)CN)C(=O)N[C@@H](CCCN=C(N)N)C(=O)NCC(=O)N[C@H]1CSSC[C@@H](C(=O)N[C@@H](CCCCN)C(N)=O)NC(=O)[C@@H]2CCCN2C(=O)[C@H](CCCCN)NC(=O)[C@@H]2CCCN2C(=O)[C@@H]2CCCN2C(=O)[C@H](Cc2ccc(O)cc2)NC(=O)[C@H](CO)NC(=O)[C@H](CCCCN)NC(=O)[C@H]([C@@H](C)O)NC(=O)[C@H](Cc2c[nH]c3ccccc23)NC1=O [GALRGCWTKSYPPKPCK]

MIC [1]: 5.66 µM (≈ 12.6 µg/mL)
MIC [38]: 1.5 µM (≈ 3.33 µg/mL)
MIC [39]: 3 µM (≈ 6.67 µg/mL)
MIC (Citrobacter freundii): 2 µM (≈ 4.44 µg/mL)
MIC [40]: 1.22 µM (≈ 2.72 µg/mL)
MIC (Escherichia coli ML-35): 1 µM (≈ 2.22 µg/mL)
MIC (Enterococcus faecium): 1.41 µM (≈ 3.14 µg/mL)
MIC (Pseudomonas aeruginosa): 2 µM (≈ 4.44 µg/mL)
MIC [41]: 5.66 µM (≈ 12.6 µg/mL)
MIC (Bacillus megaterium Bm11): 2 µM (≈ 4.44 µg/mL)
MIC (Micrococcus luteus): 1 µM (≈ 2.22 µg/mL)
MIC [42]: 4 µM (≈ 8.89 µg/mL)
MIC (Staphylococcus aureus): 2 µM and 2.45 µM
MIC (Klebsiella pneumoniae): 1 µM (≈ 2.22 µg/mL)
MIC (Candida albicans): > 4 µM
MIC (Escherichia coli): 1.41 µM (≈ 3.14 µg/mL)
MIC [33]: 4 µM (≈ 8.89 µg/mL)
SMILES: CC[C@H](C)[C@H](NC(=O)[C@@H](NC(=O)[C@H](CCCN=C(N)N)NC(=O)[C@H](C)NC(=O)[C@H](CC(C)C)NC(=O)[C@H](CCCCN)NC(=O)[C@H](CCCN=C(N)N)NC(=O)[C@H](C)NC(=O)[C@H](CC(C)C)NC(=O)[C@H](CCCN=C(N)N)NC(=O)CNC(=O)[C@H](Cc1ccccc1)NC(=O)[C@H](CCCCN)NC(=O)[C@H](CO)NC(=O)[C@H](CC(C)C)NC(=O)[C@H](CC(C)C)NC(=O)CN)C(C)C)C(=O)N1CCC[C@H]1C(=O)N[C@@H](CCCCN)C(=O)N[C@H](C(N)=O)C(C)C [GLLSKFGRLARKLARVIPKV]
MIC [43]: 1.5 µM (≈ 3.33 µg/mL)
